The test deals with SARS CoV-2 (USA_WA1/2020).
`CCN1CCN(Cc2ccc(Nc3ncc(F)c(-c4cc(F)c5nc(C)n(C(C)C)c5c4)n3)nc2)CC1` [abemaciclib]: the “rescue of SARS-CoV-2 CPE (in words)” value is “protected against SARS-CoV-2 induced CPE, but to lesser degrees than cepharanthine”.

In the case of `CC1=C[C@]23C(=O)[C@@H](C=C(CO)[C@@H](O)[C@]2(O)[C@H]1O)[C@H]1[C@@H](C[C@H]3C)C1(C)C` [ingenol], the “rescue of SARS-CoV-2 CPE (in words)” value was “protected against SARS-CoV-2 induced CPE, but to lesser degrees than cepharanthine”.

For the molecule `C=CC(=O)Nc1cc(Nc2nccc(-c3cn(C)c4ccccc34)n2)c(OC)cc1N(C)CCN(C)C` [osimertinib], the “rescue of SARS-CoV-2 CPE (in words)” value is “protected against SARS-CoV-2 induced CPE, but to lesser degrees than cepharanthine”.

As to `CC(CN(C)C)CN1c2ccccc2CCc2ccccc21` (stereo not shown) [trimipramine], the “rescue of SARS-CoV-2 CPE (in words)” value was “protected against SARS-CoV-2 induced CPE, but to lesser degrees than cepharanthine”.
